{
  "source": "ChEMBL document CHEMBL1165947",
  "about": "“Synthesis and antitumor activity of 2,5-bis(3'-indolyl)-furans and 3,5-bis(3'-indolyl)-isoxazoles, nortopsentin analogues” (Bioorg Med Chem, 2010)",
  "system": "P388",
  "experiment": "Cytotoxicity against mouse P388 cells",
  "type": "functional, cell-based",
  "data": [
    {"smiles": "Cn1c(-c2cn(C)c3cc(Br)ccc23)cnc1-c1cn(C)c2ccccc12", "values": [
      {"measurement": "IC50", "result": 800, "unit": "nM"}
    ]}
  ]
}
